How the values were obtained:
Format in all cases: cell-based
MM cell line MM1S = test: CD38 expression by flow cytometry on MM1S; conditions: anti-CD38 staining, vs non-treated controls
Procedure: (§1) Desialylation: Target cells were cultured with 300 μM 3Fax-Peracetyl Neu5Ac (SIA, sialyltransferase inhibitor) for 72 hrs prior to use or treated with Neuraminidase (Neura, sialidase) for 45 mins@37° C. prior to use.
(§2) Both types of primary NK cell were cultured with the same amount of IL-2 ([…] as is standard for primary NK cell work. MM1S, H929 and JJN3 were treated with either SIA or Neura as described above and stained with an anti-CD38 antibody (BD Pharmingen-564498) for 30 mins on ice prior to being screened for expression using flow cytometry.

MM cell line H929 = test: CD38 expression by flow cytometry on H929; conditions: anti-CD38 staining, vs non-treated controls
Procedure: as §1, §2

[1] = system: H929 target myeloma cell line; test: NK cell mediated cytotoxicity co-culture against H929; conditions: expanded primary NK cells, co-cultures 4 hrs
Procedure: Co-cultures were carried out with either expanded (Miltenyi method) primary NK cells or IL-2 activated primary NK cells, both originally isolated from peripheral blood supplied by healthy donors and H929 and JJN3 target myeloma cell lines.
Propidium Iodide was used in flow cytometry to identify dead cells. MM cells were separated from NK cells by staining NK cells with CFSE cell tracking dye prior to initiating the co-culture.
% specific lysis (reported in all our figures) was calculated using the following formula:
Total cell death−basal cell death/100−basal cell death×100=%
Cell death here applies to target cells (e.g. JJN3 and H929)
After 30 mins treatment with Daratumumab, cells were co-cultured with primary expanded NK cells (Miltenyi method) for 4 hours at either 0.5:1 or 1:1 E:T (Effector:Target) ratios.

JJN3 MM cells = test: CD38 expression by flow cytometry on JJN3; conditions: treated 72 hours prior to expression measurement
Procedure: as §2
JJN3 MM cells were treated with 300 μM SIA and 10 nM ATRA (all-trans retinoic acid), or 300 μM SIA, 10 nM ATRA and DMSO individually for 72 hrs@37° C. After 72 hours, the cells were collected, washed with normal culture media once and then treated with Daratumumab at a concentration of 10 μg/ml for 30 mins at room temperature.
Some cells from all treatment conditions were not treated with Daratumumab and were instead screened for CD38 expression using an anti-CD38 antibody.

**Q.** Which results are given for `COC(=O)C1(OC(C)=O)OC(C(OC(C)=O)C(COC(C)=O)OC(C)=O)C(NC(C)=O)C(OC(C)=O)C1F` (stereo not shown) [SIA, 3Fax-Peracetyl Neu5Ac]?
**A.** CD38 expression (MFI) (MM cell line MM1S): unmasks CD38; CD38 expression (MFI) (MM cell line H929): unmasks CD38; expanded primary NK cell-mediated cytotoxicity (% specific lysis) [1]: enhanced expanded primary NK cell-mediated cytotoxicity

**Q.** Which CD38 expression (JJN3 MM cells) does the source give for `CC1=C(/C=C/C(C)=C/C=C/C(C)=C/C(=O)O)C(C)(C)CCC1` [ATRA, all-trans retinoic acid] here?
**A.** Its CD38 expression is “strongly up-regulates CD38 expression”.

— US20220389112A1, “TREATMENT OF MULTIPLE MYELOMA” (priority 2019, published 2022)
